Results published in patent US20180370918A1, “SORAFENIB HEMI-P-TOSYLATE MONOHYDRATE CRYSTAL AND PREPARATION PROCESS THEREOF” (CHIA TAI TIANQING PHARMACEUTICAL GROUP CO., LTD., priority 2015, published 2018).

Legend:
[1] = Stability test (Chinese Pharmacopoeia 2010, Guideline for Stability Test of Bulk Drug), purity by HPLC; format: physicochemical
Experimental: Chromatographic column: Agilent peptide map chromatographic column (3.0×150 mm, 2.7 μm)
Mobile phase A: phosphate buffer solution (monopotassium phosphate (0.79 g) was weighted and dissolved in water, then diluted to 1000 ml, and further adjusted to pH=2.4 with phosphoric acid)
Mobile phase B: ethanol-acetonitrile (40:60)
Detection wavelength: 235 nm for detection
Column temperature: 55° C.
Solvent: mobile phase A-mobile phase B (1:3)
Preparation of a solution of a test sample: an appropriate amount of the test sample was weighted and dissolved in the solvent [mobile phase A-mobile phase B (1:3)], then diluted to a solution which comprises about 0.16 mg of sorafenib per 1 ml as the solution of the test sample.
The stability test for the sorafenib hemi-p-tosylate monohydrate crystal of the present invention was conducted according to the Chinese Pharmacopoeia (2010), Part 11, Appendix XIX C: Guideline for Stability Test of Bulk Drug and Pharmaceutical Preparation.

[2] = Hygroscopicity test (Chinese Pharmacopoeia 2010, Guideline for Hygroscopicity Test of Drug); format: physicochemical
Experimental: The hygroscopicity test for the sorafenib hemi-p-tosylate monohydrate crystal of the present invention was conducted according to the Chinese Pharmacopoeia (2010), Part II, Appendix XIX J: Guideline for Hygroscopicity Test of Drug.

- Purity ([1]; Day 0): 99.96%
- Purity ([1]; Exposure test to light (luminance: 6000 Lux), standing for 10 days): 99.97%
- Purity ([1]; Shading test (luminance: 6000 Lux), standing for 10 days): 99.96%
- Purity ([1]; Standing for 6 months at 25° C. ± 2° C. and humidity of 60% ± 5%): 99.96%
- Purity ([1]; Standing for 10 days at 25° C. and humidity of 92.5% ± 5%): 99.96%
- Purity ([1]; Standing for 10 days at 40° C.): 99.96%
- Purity ([1]; Standing for 10 days at 60° C.): 99.95%
- Stability (conclusion in words) ([1]; results of Table 4): highly stable
- Hygroscopic weight grain (%) [2]: 0.07%
Structure (SMILES): CNC(=O)c1cc(Oc2ccc(NC(=O)Nc3ccc(Cl)c(C(F)(F)F)c3)cc2)ccn1 [sorafenib hemi-p-tosylate monohydrate]
